Tested on: rodent lifetime carcinogenesis bioassay, tumor incidence TD50
Test: carcinogenic potency in animals, long-term in vivo studies, CPDB compilation (AID 1745844)

## ClC1(Cl)C2(Cl)C3(Cl)C4(Cl)C(Cl)(Cl)C5(Cl)C3(Cl)C1(Cl)C5(Cl)C24Cl (centres undefined)
mouse, strain B6AKF1, females, oral dosing, site: any site (literature study), lesion: several types, types named in the paper, dosed 68 weeks, study length 68 weeks
  TD50: 1.26 mg/kg/day
mouse, strain B6AKF1, females, oral dosing, site: liver, lesion: hepatoma, dosed 68 weeks, study length 68 weeks
  TD50: 1.1 mg/kg/day
mouse, strain B6AKF1, males, oral dosing, site: any site (literature study), lesion: several types, types named in the paper, dosed 58 weeks, study length 58 weeks
  TD50: 3.32 mg/kg/day
mouse, strain B6AKF1, males, oral dosing, site: liver, lesion: hepatoma, dosed 58 weeks, study length 58 weeks
  TD50: 2.13 mg/kg/day
mouse, strain B6C3F1, females, oral dosing, site: any site (literature study), lesion: several types, types named in the paper, dosed 69 weeks, study length 69 weeks
  TD50: 1.6 mg/kg/day
mouse, strain B6C3F1, females, oral dosing, site: liver, lesion: hepatoma, dosed 69 weeks, study length 69 weeks
  TD50: 1.6 mg/kg/day
mouse, strain B6C3F1, males, oral dosing, site: any site (literature study), lesion: several types, types named in the paper, dosed 58 weeks, study length 58 weeks
  TD50: 1.5 mg/kg/day
mouse, strain B6C3F1, males, oral dosing, site: liver, lesion: hepatoma, dosed 58 weeks, study length 58 weeks
  TD50: 1.83 mg/kg/day
mouse, strain B6C3F1, males, oral dosing, site: liver, lesion: several types, types named in the paper, dosed 58 weeks, study length 58 weeks
  TD50: 1.5 mg/kg/day
rat, strain Fischer 344, females, in feed, site: any site (literature study), lesion: several types, types named in the paper, dosed 104 weeks, study length 105 weeks
  TD50: 21.9 mg/kg/day
rat, strain Fischer 344, females, in feed, site: any site (literature study), lesion: several types, types named in the paper, dosed 104 weeks, study length 107 weeks
  TD50: 22.4 mg/kg/day
rat, strain Fischer 344, females, in feed, site: liver + multiple organs + spleen, lesion: hepatocellular carcinoma + neoplastic nodule + mononuclear-cell leukemia, dosed 104 weeks, study length 105 weeks
  TD50: 3.34 mg/kg/day
rat, strain Fischer 344, females, in feed, site: liver, lesion: hepatocellular adenoma + hepatocellular carcinoma + neoplastic nodule, dosed 104 weeks, study length 105 weeks
  TD50: 3.17 mg/kg/day
rat, strain Fischer 344, females, in feed, site: liver, lesion: hepatocellular adenoma + hepatocellular carcinoma + neoplastic nodule, dosed 104 weeks, study length 107 weeks
  TD50: 16.5 mg/kg/day
rat, strain Fischer 344, females, in feed, site: liver, lesion: hepatocellular carcinoma + neoplastic nodule, dosed 104 weeks, study length 105 weeks
  TD50: 3.17 mg/kg/day
rat, strain Fischer 344, females, in feed, site: liver, lesion: neoplastic nodule, dosed 104 weeks, study length 105 weeks
  TD50: 3.22 mg/kg/day
rat, strain Fischer 344, females, in feed, site: multiple organs + spleen, lesion: mononuclear-cell leukemia, dosed 104 weeks, study length 105 weeks
  TD50: 15.7 mg/kg/day
rat, strain Fischer 344, females, in feed, site: multiple organs + spleen, lesion: mononuclear-cell leukemia, dosed 104 weeks, study length 107 weeks
  TD50: 5.97 mg/kg/day
rat, strain Fischer 344, males, in feed, site: adrenal gland + kidney/pelvis + liver, lesion: pheochromocytoma + pheochromocytoma, malignant + transitional-cell papilloma + hepatocellular carcinoma + neoplastic nodule, dosed 104 weeks, study length 104 weeks
  TD50: 0.669 mg/kg/day
rat, strain Fischer 344, males, in feed, site: adrenal gland, lesion: pheochromocytoma + pheochromocytoma, malignant, dosed 104 weeks, study length 104 weeks
  TD50: 1.43 mg/kg/day
rat, strain Fischer 344, males, in feed, site: any site (literature study), lesion: several types, types named in the paper, dosed 104 weeks, study length 104 weeks
  TD50: 0.618 mg/kg/day
rat, strain Fischer 344, males, in feed, site: kidney/pelvis, lesion: transitional-cell papilloma, dosed 104 weeks, study length 104 weeks
  TD50: 13.5 mg/kg/day
rat, strain Fischer 344, males, in feed, site: liver, lesion: hepatocellular adenoma + hepatocellular carcinoma + neoplastic nodule, dosed 104 weeks, study length 104 weeks
  TD50: 0.825 mg/kg/day
rat, strain Fischer 344, males, in feed, site: liver, lesion: hepatocellular carcinoma + neoplastic nodule, dosed 104 weeks, study length 104 weeks
  TD50: 0.825 mg/kg/day
rat, strain Fischer 344, males, in feed, site: liver, lesion: hepatocellular carcinoma, dosed 104 weeks, study length 104 weeks
  TD50: 7.09 mg/kg/day
rat, strain Fischer 344, males, in feed, site: liver, lesion: neoplastic nodule, dosed 104 weeks, study length 104 weeks
  TD50: 0.87 mg/kg/day
rat, strain Fischer 344, males, in feed, site: testis, lesion: interstitial-cell tumor, dosed 104 weeks, study length 104 weeks
  TD50: 0.708 mg/kg/day
rat, strain Fischer 344, males, in feed, site: thyroid gland, lesion: follicular-cell adenoma + follicular-cell carcinoma, dosed 104 weeks, study length 104 weeks
  TD50: 10.4 mg/kg/day
rat, strain Fischer 344, males, in feed, site: thyroid gland, lesion: follicular-cell adenoma, dosed 104 weeks, study length 104 weeks
  TD50: 12.7 mg/kg/day

## C=CF
mouse, strain Charles River CD1, females, inhaled, site: Harderian gland, lesion: adenoma, dosed 67 weeks, study length 74 weeks
  TD50: 4010 mg/kg/day
mouse, strain Charles River CD1, females, inhaled, site: liver, lesion: hemangiosarcoma, dosed 67 weeks, study length 74 weeks
  TD50: 25.4 mg/kg/day
mouse, strain Charles River CD1, females, inhaled, site: lung, lesion: alveolar/bronchiolar adenoma, dosed 67 weeks, study length 74 weeks
  TD50: 54.6 mg/kg/day
mouse, strain Charles River CD1, females, inhaled, site: lung, lesion: several types, types named in the paper, dosed 67 weeks, study length 74 weeks
  TD50: 54.6 mg/kg/day
mouse, strain Charles River CD1, females, inhaled, site: mammary gland, lesion: adenocarcinoma, dosed 67 weeks, study length 74 weeks
  TD50: 13.6 mg/kg/day
mouse, strain Charles River CD1, females, inhaled, site: mammary gland, lesion: several types, types named in the paper, dosed 67 weeks, study length 74 weeks
  TD50: 13.6 mg/kg/day
mouse, strain Charles River CD1, males, inhaled, site: Harderian gland, lesion: adenoma, dosed 63 weeks, study length 78 weeks
  TD50: 1000 mg/kg/day
mouse, strain Charles River CD1, males, inhaled, site: liver, lesion: hemangiosarcoma, dosed 63 weeks, study length 78 weeks
  TD50: 19.4 mg/kg/day
mouse, strain Charles River CD1, males, inhaled, site: liver, lesion: hepatocellular adenoma, dosed 63 weeks, study length 78 weeks
  TD50: 34.6 mg/kg/day
mouse, strain Charles River CD1, males, inhaled, site: lung, lesion: alveolar/bronchiolar adenocarcinoma, dosed 63 weeks, study length 78 weeks
  TD50: 12300 mg/kg/day
mouse, strain Charles River CD1, males, inhaled, site: lung, lesion: alveolar/bronchiolar adenoma, dosed 63 weeks, study length 78 weeks
  TD50: 5.78 mg/kg/day
mouse, strain Charles River CD1, males, inhaled, site: lung, lesion: several types, types named in the paper, dosed 63 weeks, study length 78 weeks
  TD50: 5.78 mg/kg/day
rat, strain Charles River CD (Sprague-Dawley), females, inhaled, site: Zymbal's gland, lesion: squamous-cell carcinoma, sebaceous, dosed 52 weeks, study length 52 weeks
  TD50: 639 mg/kg/day
rat, strain Charles River CD (Sprague-Dawley), females, inhaled, site: Zymbal's gland, lesion: squamous-cell carcinoma, sebaceous, dosed 78 weeks, study length 78 weeks
  TD50: 684 mg/kg/day
rat, strain Charles River CD (Sprague-Dawley), females, inhaled, site: Zymbal's gland, lesion: squamous-cell carcinoma, sebaceous, dosed 93 weeks, study length 103 weeks
  TD50: 1470 mg/kg/day
rat, strain Charles River CD (Sprague-Dawley), females, inhaled, site: liver, lesion: hemangiosarcoma, dosed 93 weeks, study length 103 weeks
  TD50: 16.6 mg/kg/day
rat, strain Charles River CD (Sprague-Dawley), females, inhaled, site: liver, lesion: hepatocellular adenoma, dosed 93 weeks, study length 103 weeks
  TD50: 183 mg/kg/day
rat, strain Charles River CD (Sprague-Dawley), females, inhaled, site: liver, lesion: hepatocellular carcinoma, dosed 78 weeks, study length 78 weeks
  TD50: 1440 mg/kg/day
rat, strain Charles River CD (Sprague-Dawley), females, inhaled, site: liver, lesion: hepatocellular carcinoma, dosed 93 weeks, study length 103 weeks
  TD50: 7770 mg/kg/day
rat, strain Charles River CD (Sprague-Dawley), females, inhaled, site: liver, lesion: several types, types named in the paper, dosed 78 weeks, study length 78 weeks
  TD50: 7380 mg/kg/day
rat, strain Charles River CD (Sprague-Dawley), females, inhaled, site: liver, lesion: several types, types named in the paper, dosed 93 weeks, study length 103 weeks
  TD50: 183 mg/kg/day
rat, strain Charles River CD (Sprague-Dawley), males, inhaled, site: Zymbal's gland, lesion: squamous-cell carcinoma, sebaceous, dosed 52 weeks, study length 52 weeks
  TD50: 213 mg/kg/day
rat, strain Charles River CD (Sprague-Dawley), males, inhaled, site: Zymbal's gland, lesion: squamous-cell carcinoma, sebaceous, dosed 93 weeks, study length 103 weeks
  TD50: 1090 mg/kg/day
rat, strain Charles River CD (Sprague-Dawley), males, inhaled, site: liver, lesion: hemangiosarcoma, dosed 93 weeks, study length 103 weeks
  TD50: 25 mg/kg/day
rat, strain Charles River CD (Sprague-Dawley), males, inhaled, site: liver, lesion: hepatocellular adenoma, dosed 93 weeks, study length 103 weeks
  TD50: 200 mg/kg/day

## C=CBr
rat, strain Sprague-Dawley, females, inhaled, site: Zymbal's gland, lesion: squamous-cell carcinoma, dosed 81 weeks, study length 103 weeks
  TD50: 2240 mg/kg/day
rat, strain Sprague-Dawley, females, inhaled, site: liver, lesion: hepatocellular carcinoma, dosed 81 weeks, study length 103 weeks
  TD50: 749 mg/kg/day
rat, strain Sprague-Dawley, females, inhaled, site: liver, lesion: neoplastic nodule, dosed 81 weeks, study length 103 weeks
  TD50: 18.9 mg/kg/day
rat, strain Sprague-Dawley, females, inhaled, site: liver, lesion: several types, types named in the paper, dosed 81 weeks, study length 103 weeks
  TD50: 433 mg/kg/day
rat, strain Sprague-Dawley, females, inhaled, site: several sites, sites named in the paper, lesion: angiosarcoma, dosed 81 weeks, study length 103 weeks
  TD50: 19.2 mg/kg/day
rat, strain Sprague-Dawley, males, inhaled, site: Zymbal's gland, lesion: papilloma, dosed 76 weeks, study length 103 weeks
  TD50: 2760 mg/kg/day
rat, strain Sprague-Dawley, males, inhaled, site: Zymbal's gland, lesion: squamous-cell carcinoma, dosed 76 weeks, study length 103 weeks
  TD50: 409 mg/kg/day
rat, strain Sprague-Dawley, males, inhaled, site: liver, lesion: hepatocellular carcinoma, dosed 76 weeks, study length 103 weeks
  TD50: 387 mg/kg/day
rat, strain Sprague-Dawley, males, inhaled, site: liver, lesion: several types, types named in the paper, dosed 76 weeks, study length 103 weeks
  TD50: 303 mg/kg/day
rat, strain Sprague-Dawley, males, inhaled, site: several sites, sites named in the paper, lesion: angiosarcoma, dosed 76 weeks, study length 103 weeks
  TD50: 17.9 mg/kg/day
